Data: patent publication US7378397B2 (The Provost, Fellows and Scholars of the College of the …, priority 2000, dated 2008)

Legend:
TRH-DE [1] = target: T1, TRH-DE (Sus scrofa, UniProt A0A287AP33); experiment: HPLC assay of peptide hydrolysis by TRH-DE (Glp production); type: biochemical, porcine; conditions: for hydrolysis by TRH-DE (release of Glp): 1 mM peptide incubated with TRH-DE 18 h at 37° C., HPLC
T1 construct: The inventor purified TRH-DE from porcine brain according to purification procedures previously published by Dr. K. Bauer; from tissue; host or cells: porcine brain (TRH-DE); bovine kidney (DPP-IV, gift from Dr. C. H. Williams)
Procedure: The inventor purified TRH-DE from porcine brain according to purification procedures previously published by Dr. K. Bauer, (Max-Planck-Institut, Hannover, Germany) (1). TRH-DE was purified almost 20,000 fold. […] Dipeptidyl peptidase IV (DPP-IV) (EC 3.4.14.5), purified from bovine kidney (7.7 mg ml^−1, specific activity of 17.5 U mg^−1 with Gly-ProAMC as substrate), was obtained as a gilt from Dr. C. H. Williams (Queen's University Belfast, U.K). (DPP-IV was used as the coupling enzyme used in the fluorometric assays).
One unit (U) of enzyme activity was defined as that amount catalysing the formation of one μmol of product in one minute under the standard conditions employed. All incubations in the assays described below were carried out in 20 mM potassium phosphate buffer, pH 7.5, at 37° C.
Kinetic analysis of the peptide library using HPLC—The ability of each peptide in the library to act as a TRH-DE substrate was assessed using HPLC. As an initial screen, 1 mM peptide was incubated with 0.8 μg TRH-DE in a total volume of 1 ml for 18 h at 37° C. Control samples were included in which peptide (1 mM) or Glp (0.2 mM-0.8 mM) were incubated under identical conditions in the absence of TRH-DE. TRH-DE activity was terminated by the addition of TFA (0.15% v/v) and samples were then analysed using HPLC as described previously (24). Products resulting from TRH-DE hydrolysis could be separated on a C-18 reverse-phase column (Hypersil, UK) using a linear gradient of 0-70% acetonitrile in 0.08% (v/v) TFA. The concentration of Glp formed by the action of TRH-DE on the peptide library was measured by UV absorbance at 206 nm with a quantitative detection limit of 0.1 mM for a 40 μl injection volume, employing a signal to noise ratio of 10. Following the incubation of each peptide with TRH-DE, evidence of Glp in the sample was taken to indicate that the peptide was a TRH-DE substrate.
The rates of hydrolysis for each of those peptides identified as substrates were then compared by measuring Gip production using microassays with shorter incubation times. In these assays peptide (1 mM) was incubated at 37° C. in a total volume of 100 μl. 0.8-3.2 μg TRH-DE and incubations times of 5 min to 18 h were used routinely. Measurements were made in triplicate. The rate of TRH-OH hydrolysis was also measured by this method.

TRH-DE [2] = target: T1, TRH-DE; conditions: From Ref. 23 (inventor's publication); cited from earlier work
Male Wistar rats [3] = experiment: behavioural effects (WDS, locomotion) after i.c.v. administration; type: in vivo, rat; conditions: 30 min
Procedure: Methods: Behavioural studies were conducted using experimentally naïve Male Wistar rats (200-250 g) maintained in a temperature controlled (21° C.), artificially-lighted (12 hr light cycle) room with free access to food and water. Behavioural effects of […] following intra-cerebroventricular (i.c.v.) administration: Animals were implanted with guide cannula aimed at the lateral cerebral ventricles (AP-0.92 mm, ML-1.5 mm, DV-2.6 mm relative to Bregma, atlas of Paxinos & Watson) under halothane anaesthesia. One week following surgery placement of the cannulae was assessed by the ability of a microinjection of angiotensin II (200 ng in 1 μl) to induce drinking behaviour. […] They were then administered either vehicle (1 μl 0.9% saline) or […] (5 μg in 1 μl) followed 1 minute later by vehicle (1 μl 0.9% saline) or TRH (5 μg in 1 μl). One minute after the last i.c.v. injection animals were placed back into the perspex cage and their behaviour monitored by a computer automated tracking system for 30 minutes (Ethovision Pro, Noldus) to provide measures of locomotor activity. Animals were videotaped for subsequent blind analysis of WDS behaviour by a trained observer. A threshold dose of 5 μg TRH was chosen for i.c.v. administration so that if […] enhanced responses to TRH, this would be clearly visible. The statistical significance of differences between behavioural effects of treatments was determined using the Student's t-test or ANOVA, followed by a post-ANOVA test, as indicated. Radioligand binding data were analysed using non-linear curve fitting software (Prism, Graph Pad Software Inc.). IC50 values calculated from competition experiments were converted to Ki values using the Cheng-Prusoff (41) equation Ki=IC50/(1+L/Kd), where L=ligand concentration and Kd=the apparent dissociation constant for [^3[…].

[4] = target: TRH receptors in rat cortical membranes; experiment: radioligand binding to ^3H-3MeHis-TRH-labelled receptors in rat cortex; conditions: competition with 6-8 nM ^3H-3MeHis-TRH, Cheng-Prusoff
Procedure: Evaluation of the ability of TRH, Glp-Asn-ProNH2, and Glp-Asn-ProAMC to bind to ^3H-3MeHis-TRH-labelled receptors in rat cortex: Radioligand binding assays were conducted to investigate the possibility that the two TRH-DE inhibitors might exert their effects by acting independently at TRH receptors in the brain.
Cortex tissue from male Sprague-Dawley rats (250 g) was dissected out, weighed and homogenised in 30 volumes of ice-cold sodium phosphate buffer (0.02 M, pH 7.5). The homogenates were centrifuged at 30,000 g at 4° C. for 30 min. The supernatant was discarded and the pellet was resuspended at 100 mg wet wt/ml in buffer containing 177 μM bacitracin. […] Non-specific binding was defined in the presence of 10 μM TRH.
The statistical significance of differences between behavioural effects of treatments was determined using the Student's t-test or ANOVA, followed by a post-ANOVA test, as indicated. Radioligand binding data were analysed using non-linear curve fitting software (Prism, Graph Pad Software Inc.). IC50 values calculated from competition experiments were converted to Ki values using the Cheng-Prusoff (41) equation Ki=IC50/(1+L/Kd), where L=ligand concentration and Kd=the apparent dissociation constant for [^3H]-[3-MeHis]TRH.

Male Wistar rats [5] = experiment: behavioural effects (activity score, WDS, locomotion) after i.p. administration; type: in vivo, rat; conditions: i.p.
Procedure: Methods: Behavioural studies were conducted using experimentally naïve Male Wistar rats (200-250 g) maintained in a temperature controlled (21° C.), artificially-lighted (12 hr light cycle) room with free access to food and water. Behavioural effects of TRH±TRH-DE inhibitor following intraperitoneal (i.p.) administration: On the day of the experiment, animals were singly housed in perspex cages (30×20×20 cm) and allowed to acclimatize for 20 min. After this period, two baseline measurements of behaviour were made at 10 and 5 min prior to administration of drugs. […] Animals were then observed by two independent observers who were blind to treatment, every 5 min for 30 sec. Blocks of 5 animals were treated at a time, 1 per drug group. Blocks were repeated 5 times. The occurrence of individual behaviours were noted using a behavioural check list, which included grooming, locomotion, rearing, chewing, sniffing, head weave, tail elevation, and/or straub tail and WDS behaviours. These behaviours were summed to yield an overall activity count. Animals were videotaped for separate subsequent analysis of WDS. All WDS behaviours occurring during each 5 min interval after drug administration were counted. The statistical significance of differences between behavioural effects of treatments was determined using the Student's t-test or ANOVA, followed by a post-ANOVA test, as indicated. Radioligand binding data were analysed using non-linear curve fitting software (Prism, Graph Pad Software Inc.). IC50 values calculated from competition experiments were converted to Ki values using the Cheng-Prusoff (41) equation Ki=IC50/(1+L/Kd), where L=ligand concentration and Kd=the apparent dissociation constant for [^3[…].

T1 sequence (A0A287AP33 1-1066): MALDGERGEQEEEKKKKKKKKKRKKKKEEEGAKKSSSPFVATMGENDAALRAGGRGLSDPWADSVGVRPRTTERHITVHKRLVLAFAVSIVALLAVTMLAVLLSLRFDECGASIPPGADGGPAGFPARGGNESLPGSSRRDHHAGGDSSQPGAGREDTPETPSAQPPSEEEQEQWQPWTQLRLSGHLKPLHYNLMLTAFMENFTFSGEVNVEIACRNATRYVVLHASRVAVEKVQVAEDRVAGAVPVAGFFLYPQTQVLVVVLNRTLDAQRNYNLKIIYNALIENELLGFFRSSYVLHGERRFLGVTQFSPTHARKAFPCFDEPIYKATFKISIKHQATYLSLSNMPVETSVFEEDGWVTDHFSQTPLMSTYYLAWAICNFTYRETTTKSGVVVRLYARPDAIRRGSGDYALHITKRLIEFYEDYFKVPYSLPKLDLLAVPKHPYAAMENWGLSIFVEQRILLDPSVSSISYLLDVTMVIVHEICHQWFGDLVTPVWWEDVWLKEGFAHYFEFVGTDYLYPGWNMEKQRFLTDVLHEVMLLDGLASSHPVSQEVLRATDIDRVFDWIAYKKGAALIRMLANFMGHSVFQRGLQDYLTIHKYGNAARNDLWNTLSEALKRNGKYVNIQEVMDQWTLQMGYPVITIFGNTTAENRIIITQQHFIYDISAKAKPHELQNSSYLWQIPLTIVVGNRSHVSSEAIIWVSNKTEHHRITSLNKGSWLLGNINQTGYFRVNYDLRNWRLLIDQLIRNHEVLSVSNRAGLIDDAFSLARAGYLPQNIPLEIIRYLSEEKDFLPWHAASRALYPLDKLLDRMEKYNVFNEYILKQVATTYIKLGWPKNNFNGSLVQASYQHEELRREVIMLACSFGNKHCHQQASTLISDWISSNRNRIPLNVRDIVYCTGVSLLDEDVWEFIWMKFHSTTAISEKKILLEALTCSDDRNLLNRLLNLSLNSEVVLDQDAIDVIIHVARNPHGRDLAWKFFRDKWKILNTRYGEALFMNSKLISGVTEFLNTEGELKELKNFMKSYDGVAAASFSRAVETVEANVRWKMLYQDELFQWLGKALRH

## NC(=O)[C@@H]1CCCN1C(=O)[C@H](Cc1cnc[nH]1)NC(=O)[C@@H]1CCC(=O)N1 [Glp-His-ProNH2, L-pyroglutamyl-L-histidyl-L-prolineamide]
TRH-DE [1]
  hydrolysis by TRH-DE (release of Glp): degraded fully
TRH-DE [1]; listed as TRH
  hydrolysis by TRH-DE (release of Glp): no TRH (RT 8.566 min) remained
TRH-DE [1]; estimated from HPLC rates of hydrolysis using Vmax=vo{(Km+[S])/[S]}
  Vmax: 2.63 ± 0.26 (11) U mg^−1
TRH-DE [1]; peptide 1 mM, 37° C., Glp production by HPLC, mean±S.D.
  Rate of hydrolysis: 2.54 ± 0.25 (11) U mg^−1
TRH-DE [2]
  Km: 35 µM
Male Wistar rats [3]; 5 μg alone
  number of WDS compared with vehicle: Neither TRH nor Glp-Asn-ProAMC alone produced a significantly greater number of WDS than vehicle
Male Wistar rats [3]; TRH 5 μg ± Glp-Asn-ProAMC 5 μg, mean±S.E., n=6
  number of WDS during the observation period: 3.33±1.23 WDS/30 min
[4]
  pKi: 7.65±0.17
Male Wistar rats [5]; 10 mg/kg
  individual behaviours contributing to the activity score: primarily promoted grooming, sniffing, and chewing behaviours
Male Wistar rats [5]; 10 mg/kg each, 40 min post injection
  rat activity scores compared with saline: increase in rat activity scores throughout the 40 min period post injection
Male Wistar rats [5]; 10 mg/kg each, late observation period
  decline of behavioural responses with time: tended to decline 35 min after i.p. administration
Male Wistar rats [5]; 10 mg/kg, 40 min observation
  induction of WDS: immediate induction of WDS in all animals with the response gradually declining to zero after 40 min
